The target of the test is T1, met (HGF receptor) in human gastric cancer cells MKN45 (Homo sapiens, UniProt P08581).
T1 construct: endogenous in cells; host or cells: MKN45 human gastric cancer cells
T1 sequence (P08581 25-1390): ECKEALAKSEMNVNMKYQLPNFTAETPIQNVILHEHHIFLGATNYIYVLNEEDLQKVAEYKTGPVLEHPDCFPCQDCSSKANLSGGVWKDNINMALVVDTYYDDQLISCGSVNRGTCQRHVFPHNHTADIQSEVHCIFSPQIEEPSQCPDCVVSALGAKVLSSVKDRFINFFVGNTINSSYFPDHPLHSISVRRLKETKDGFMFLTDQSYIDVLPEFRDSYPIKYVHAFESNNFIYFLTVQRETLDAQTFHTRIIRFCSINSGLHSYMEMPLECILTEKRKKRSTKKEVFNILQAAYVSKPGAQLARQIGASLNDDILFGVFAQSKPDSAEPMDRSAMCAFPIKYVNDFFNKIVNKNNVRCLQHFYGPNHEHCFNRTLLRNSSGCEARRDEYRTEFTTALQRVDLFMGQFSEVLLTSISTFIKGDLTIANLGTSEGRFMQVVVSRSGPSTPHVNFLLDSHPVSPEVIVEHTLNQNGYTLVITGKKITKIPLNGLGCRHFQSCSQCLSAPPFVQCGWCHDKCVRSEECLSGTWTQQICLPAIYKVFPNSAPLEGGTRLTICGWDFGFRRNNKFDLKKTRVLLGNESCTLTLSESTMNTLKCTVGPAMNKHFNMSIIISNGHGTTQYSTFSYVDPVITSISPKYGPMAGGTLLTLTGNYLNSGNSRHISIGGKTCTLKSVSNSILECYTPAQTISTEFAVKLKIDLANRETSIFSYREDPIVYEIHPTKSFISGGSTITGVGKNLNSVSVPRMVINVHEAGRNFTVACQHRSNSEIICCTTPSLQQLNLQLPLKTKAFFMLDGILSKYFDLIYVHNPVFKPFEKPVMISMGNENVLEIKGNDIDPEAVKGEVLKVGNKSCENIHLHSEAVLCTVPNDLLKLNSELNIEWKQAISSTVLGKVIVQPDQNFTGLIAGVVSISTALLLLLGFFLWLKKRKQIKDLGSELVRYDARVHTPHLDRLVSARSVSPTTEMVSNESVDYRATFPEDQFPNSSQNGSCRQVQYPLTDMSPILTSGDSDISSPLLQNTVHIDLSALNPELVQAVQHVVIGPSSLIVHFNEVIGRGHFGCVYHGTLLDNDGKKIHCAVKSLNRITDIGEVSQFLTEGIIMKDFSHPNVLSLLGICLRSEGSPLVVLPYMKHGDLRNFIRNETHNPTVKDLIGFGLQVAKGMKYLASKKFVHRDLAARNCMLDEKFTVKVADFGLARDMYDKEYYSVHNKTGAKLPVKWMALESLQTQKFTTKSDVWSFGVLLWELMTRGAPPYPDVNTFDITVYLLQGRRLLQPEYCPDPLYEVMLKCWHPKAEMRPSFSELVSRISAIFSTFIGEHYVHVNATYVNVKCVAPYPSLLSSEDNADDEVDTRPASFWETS
Description: Inhibitory activity against met-autophosphorylation using ELISA method (2), MKN45 cells, HGF-independent. It counts as cell-based. A digest of the protocol: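 Met autophosphorylation was read by sandwich ELISA: phosphotyrosine capture (PY20), anti-HGF receptor detection, peroxidase read-out at 450 nm. Lysates came from MKN45 gastric cancer cells kept in 0.1% FCS RPMI and treated 1 h at 37 °C with test compound, with no added HGF.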
(In general: An ELISA detects its analyte on a solid surface through an enzyme-linked reagent.)
On to `COc1cc2nccc(Oc3ccc(NC(=S)NC(=O)Cc4cccc(C(F)(F)F)c4)c(F)c3)c2cc1OC` [Example 202, 1-[4-(6,7-dimethoxyquinolin-4-yloxy)-2-fluorophenyl]-3-[2-(3-trifluoromethylphenyl)acetyl]-thiourea], for which the IC50 (in general, the midpoint of a concentration-inhibition curve) worked out at 642 nM. `COc1cc2nccc(Oc3ccc(NC(=O)NC(=O)CC4C5CCC4CC5)cc3Cl)c2cc1OC` (centres unmarked) [Example 128, 1-(2-bicyclo[2.2.1]hepto-7-ylacetyl)-3-[3-chloro-4-(6,7-dimethoxyquinolin-4-yloxy)phenyl]urea] displayed an IC50 of 285 nM. `COc1cc2nccc(Oc3ccc(NC(=S)NC(=O)Cc4ccc(Cl)cc4)c(F)c3)c2cc1OC` [Example 188, 1-[2-(4-chlorophenyl)acetyl]-3-[4-(6,7-dimethoxyquinolin-4-yloxy)-2-fluorophenyl]thiourea] registered an IC50 of 252 nM. `COc1cc2nccc(Oc3ccc(NC(=O)CC(=O)Nc4ccc(Cl)cc4)cc3)c2cc1OC` [Example 219, N-(4-chlorophenyl)-N′-[4-(6,7-dimethoxy-quinolin-4-yloxy)phenyl]malonamide] displayed an IC50 of 736 nM.

`COc1cc2c(Oc3ccc(NC(=O)NC(=O)Cc4ccc(F)cc4)cc3F)ccnc2cc1OCCN1CCN(C)CC1` [Example 49, 1-(3-fluoro-4-{6-methoxy-7-[2-(4-methyl-piperazin-1-yl)-ethoxy]quinolin-4-yloxy}phenyl)-3-[2-(4-fluorophenyl)acetyl]urea] yielded a half-inhibitory concentration (IC50) of 51.4 nM.

The molecule `COc1cc2c(Oc3ccc(NC(=S)NC(=O)Cc4ccccc4F)cc3Cl)ccnc2cc1OCCCN1CCOCC1` [Example 298, 1-{3-Chloro-4-[6-methoxy-7-(3-morpholin-4-yl-propoxy)-quinolin-4-yloxy]-phenyl}-3-[2-(2-fluoro-phenyl)-acetyl]-thiourea] returned an IC50 of 89 nM.

Turning to `COc1cc2nccc(Oc3ccc(NC(=O)NC(=O)Nc4cccc(C(C)=O)c4)cc3)c2cc1OC` [Example 261, N-(3-acetylphenyl)-({[4-(6,7-dimethoxy-quinolin-4-yloxy)anilino]carbonyl}amino)-methanamide], the IC50 stood at 343 nM. The molecule `COc1cc2c(Oc3ccc(NC(=S)NC(=O)Cc4ccc(C)cc4)cc3F)ccnc2cc1OCC(O)CN1CCOCC1` (centres unmarked) [Example 335] came in with a concentration for half-maximal inhibition (IC50) of 23.6 nM. This IC50 lies about 15-fold lower than the previous one. To `COc1cc2nccc(Oc3ccc(NC(=S)NC(=O)Cc4cccc(F)c4)cc3Cl)c2cc1OC` [Example 76, 1-[3-chloro-4-(6,7-dimethoxyquinolin-4-yloxy)-phenyl]-3-[2-(3-fluorophenyl)acetyl]thiourea] belongs 51.7 nM. For `COc1cc2nccc(Oc3ccc(NC(=O)CC(=O)Nc4cccc(Cl)c4)cc3)c2cc1OC` [Example 210, N-(3-chlorophenyl)-N′-[4-(6,7-dimethoxy-quinolin-4-yloxy)phenyl]malonamide] the value was 228 nM. To `COc1cc2nccc(Oc3ccc(NC(=O)NC(=O)Cc4ccccc4C(F)(F)F)c(F)c3)c2cc1OC` [Example 136, 1-[4-(6,7-dimethoxyquinolin-4-yloxy)-2-fluorophenyl]-3-[2-(2-trifluoromethylphenyl)acetyl]urea] belongs 342 nM; to `COc1cc2nccc(Oc3ccc(NC(=O)NC(=O)CSC4CCCCC4)c(F)c3)c2cc1OC` [Example 114, 1-(2-cyclohexylsulfanylacetyl)-3-[4-(6,7-dimethoxyquinolin-4-yloxy)-2-fluorophenyl]urea], 485 nM. In the case of `COc1cc2nccc(Oc3ccc(NC(=O)NC(=O)Cn4ccnn4)cc3Cl)c2cc1OC` [Example 123, 1-[3-chloro-4-(6,7-dimethoxyquinolin-4-yloxy)phenyl]-3-(2-[1,2,3]triazol-1-ylacetyl)urea], the IC50 worked out at 2010 nM. Compared with the last molecule, the IC50 is about 4.1-fold higher. `COc1cc2nccc(Oc3ccc(NC(=O)NC(=O)CN(C)C(C)C)cc3Cl)c2cc1OC` [Example 112, 1-[3-chloro-4-(6,7-dimethoxyquinolin-4-yloxy)phenyl]-3-[2-(isopropylmethylamino)acetyl]urea] gave an IC50 of 1730 nM. To `COc1cc2nccc(Oc3ccc(NC(=O)NC(=O)Nc4ccccc4Br)cc3)c2cc1OC` [Example 247, N-(2-bromophenyl)-({[4-(6,7-dimethoxy-quinolin-4-yloxy)anilino]carbonyl}amino)methanamide] belongs 650 nM; to `COc1cc2nccc(Oc3ccc(NC(=S)NC(=O)Cc4ccccc4Cl)cc3)c2cc1OC` [Example 59, 1-[2-(2-chlorophenyl)acetyl]-3-[4-(6,7-dimethoxyquinolin-4-yloxy)phenyl]thiourea], 193 nM.

On to `COc1cc2nccc(Oc3ccc(NC(=O)NC(=O)Cc4ccc(C)cc4)c(F)c3)c2cc1OC` [Example 124, 1-[4-(6,7-dimethoxyquinolin-4-yloxy)-2-fluorophenyl]-3-(2-p-tolylacetyl)urea], for which inhibition was half-maximal at 264 nM (IC50). Molecule `COc1cc2nccc(Oc3ccc(NC(=O)C(C)C(=O)Nc4ccc(F)cc4F)cc3)c2cc1OC` (centres unmarked) [Example 15, N-(2,4-difluorophenyl)-N′-[4-(6,7-dimethoxy-quinolin-4-yloxy)phenyl]-2-methylmalonamide] registered an IC50 of 302 nM. For `COc1cc2nccc(Oc3ccc(NC(=O)NC(=O)Cc4c(F)cccc4F)c(F)c3)c2cc1OC` [Example 134, 1-[2-(2,6-difluorophenyl)acetyl]-3-[4-(6,7-dimethoxyquinolin-4-yloxy)-2-fluorophenyl]urea] the value was 232 nM; for `COc1cc2nccc(Oc3ccc(NC(=S)NC(=O)Cc4c(F)ccc(F)c4F)cc3)c2cc1OC` [Example 204, 1-[4-(6,7-dimethoxyquinolin-4-yloxy)phenyl]-3-[2-(2,3,6-trifluorophenyl)acetyl]thiourea], 321 nM. For `COc1cc2nccc(Oc3ccc(NC(=S)NC(=O)Cc4cccc(F)c4F)c(F)c3)c2cc1OC` [Example 194, 1-[2-(2,3-difluorophenyl)acetyl]-3-[4-(6,7-dimethoxyquinolin-4-yloxy)-2-fluorophenyl]thiourea] the value was 319 nM; for `COc1cc2nccc(Oc3ccc(NC(=S)NC(=O)c4cccc5ccccc45)c(F)c3)c2cc1OC` [Example 57, 1-[4-(6,7-dimethoxyquinolin-4-yloxy)-2-fluoro-phenyl]-3-(naphthalene-1-carbonyl)thiourea], 132 nM. `COc1cc2nccc(Oc3ccc(NC(=O)NC(=O)CN4CCc5ccccc54)cc3Cl)c2cc1OC` [Example 8, 1-[3-chloro-4-(6,7-dimethoxyquinolin-4-yloxy)-phenyl]-3-[2-(2,3-dihydro-1H-1-indol-1-yl)acetyl]-urea] displayed an IC50 of 298 nM. This IC50 lies about 2.3-fold higher than the previous one. For `COc1cc2nccc(Oc3ccc(NC(=O)CC(=O)NC4CCC4)cc3)c2cc1OC` [Example 212, N-cyclobutyl-N′-[4-(6,7-dimethoxyquinolin-4-yloxy)phenyl]malonamide] the value was 379 nM; for `CCCCOCC(=O)NC(=S)Nc1ccc(Oc2ccnc3cc(OC)c(OC)cc23)c(Cl)c1` [Example 193, 1-(2-butoxyacetyl)-3-[3-chloro-4-(6,7-dimethoxyquinolin-4-yloxy)phenyl]thiourea], 444 nM. To `CCN(CC)CCOc1cc2nccc(Oc3ccc(NC(=S)NC(=O)Cc4ccccc4)cc3F)c2cc1OC` [Example 272, 1-{4-[7-(2-Diethylamine-ethoxy)-6-methoxy-quinolin-4-yloxy]-3-fluoro-phenyl}-3-phenylacetyl-thiourea] belongs 33.6 nM; to `COc1cc2nccc(Oc3ccc(NC(=O)CC(=O)Nc4ccc(F)cc4F)c(F)c3)c2cc1OC` [Example 98, N-(2,4-difluorophenyl)-N′-[4-(6,7-dimethoxy-quinolin-4-yloxy)-2-fluorophenyl]malonamide], 27.8 nM.

As for `COc1cc2nccc(Oc3ccc(NC(=S)NC(=O)CC4C5CCC4CC5)cc3F)c2cc1OC` (centres unmarked) [Example 90, 1-(2-bicyclo[2.2.1]hepto-7-ylacetyl)-3-[4-(6,7-dimethoxyquinolin-4-yloxy)-3-fluorophenyl]thiourea], half-maximal inhibition (IC50) was put at 28.1 nM. `COc1cc2nccc(Oc3ccc(NC(=O)NC(=O)CSC4CCCCC4)cc3F)c2cc1OC` [Example 115, 1-(2-cyclohexylsulfanylacetyl)-3-[4-(6,7-dimethoxyquinolin-4-yloxy)-3-fluorophenyl]urea]: the midpoint of inhibition, the IC50, lay at 359 nM. To `COc1cc2nccc(Oc3ccc(NC(=S)NC(=O)Cc4ccccc4)c(C)c3)c2cc1OC` [Example 162, 1-[4-(6,7-dimethoxyquinolin-4-yloxy)-2-methylphenyl]-3-phenylacetylthiourea] belongs 210 nM. Turning to `COc1cc2nccc(Oc3ccc(NC(=O)C(OC)C(=O)Nc4ccc(F)cc4F)cc3)c2cc1OC` (centres unmarked) [Example 103, N-(2,4-difluorophenyl)-N′-[4-(6,7-dimethoxy-quinolin-4-yloxy)phenyl]-2-methoxymalonamide], the midpoint of inhibition, the IC50, lay at 2770 nM. `COc1ccccc1CC(=O)NC(=S)Nc1ccc(Oc2ccnc3cc(OC)c(OC)cc23)cc1` [Example 153, 1-[4-(6,7-dimethoxyquinolin-4-yloxy)phenyl]-3-[2-(2-methoxyphenyl)acetyl]thiourea]: the IC50 is 232 nM. For `COc1cc2nccc(Oc3ccc(NC(=O)CC(=O)Nc4ccccc4)cc3)c2cc1OC` [Example 100, N-[4-(6,7-dimethoxyquinolin-4-yloxy)phenyl]-N′-phenylmalonamide] the value was 30.8 nM.

In the case of `COc1cc2nccc(Oc3ccc(NC(=O)NC(=O)CC4C5CCC4CC5)cc3F)c2cc1OC` (centres unmarked) [Example 127, 1-(2-bicyclo[2.2.1]hepto-7-ylacetyl)-3-[4-(6,7-dimethoxyquinolin-4-yloxy)-3-fluorophenyl]urea], the half-maximal inhibitory concentration (IC50) was 319 nM. Molecule `COc1cc2nccc(Oc3ccc(NC(=O)NC(=O)Cc4cc(F)cc(F)c4)c(F)c3)c2cc1OC` [Example 141, 1-[2-(3,5-difluorophenyl)acetyl]-3-[4-(6,7-dimethoxyquinolin-4-yloxy)-2-fluorophenyl]urea] yielded an IC50 of 336 nM. The IC50 values of the last two molecules are within 1.5-fold of each other.

The values are drawn from patent US8324245B2, “Quinoline derivative and quinazoline derivative inhibiting self-phosphorylation of hepatocytus proliferator receptor, and medicinal composition containing the same” (Kyowa Hakko Kirin Co., Ltd., priority 2001, dated 2012).
